According to the supplement of paper PMC10307832:

Tests used:
Assay in all cases: relative viability (nuclei count vs DMSO), 5 days (fraction); higher = more cells survive
CAP-232 + OSI-027 = compound: C[C@H]([C@@H](C(=O)N)NC(=O)[C@@H]1CSSC[C@@H](C(=O)N[C@H](C(=O)N[C@@H](C(=O)N[C@H](C(=O)N1)CCCCN)CC2=CNC3=CC=CC=C32)CC4=CC=C(C=C4)O)NC(=O)[C@@H](CC5=CC=CC=C5)N)O [CAP-232] + COc1cccc2cc(-c3nc([C@H]4CC[C@H](C(=O)O)CC4)n4ncnc(N)c34)[nH]c12 [OSI-027] (partner 0.5 µM)
Method in brief: (§1)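 After 5 days of treatment, lung cancer cells in 1536-well plates were fixed and stained in a single step (final 0.05% Triton X-100, 1% formaldehyde, 1 ug/ml Hoechst) and their nuclei counted on 4× images. Treatment had been applied by pin tool the day after seeding as one drug alone or as a fixed anchor-drug dose with five library-drug doses (not always all listed) in √10 steps. Relative viability is the nuclei count of treated wells divided by that of vehicle wells, and values are medians of duplicate plates.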

CAP-232 + Phenformin = compound: C[C@H]([C@@H](C(=O)N)NC(=O)[C@@H]1CSSC[C@@H](C(=O)N[C@H](C(=O)N[C@@H](C(=O)N[C@H](C(=O)N1)CCCCN)CC2=CNC3=CC=CC=C32)CC4=CC=C(C=C4)O)NC(=O)[C@@H](CC5=CC=CC=C5)N)O [CAP-232] + N=C(N)NC(=N)NCCc1ccccc1 [Phenformin] (partner 250 µM)
Method in brief: as §1

CAP-232 + Crizotinib = compound: C[C@H]([C@@H](C(=O)N)NC(=O)[C@@H]1CSSC[C@@H](C(=O)N[C@H](C(=O)N[C@@H](C(=O)N[C@H](C(=O)N1)CCCCN)CC2=CNC3=CC=CC=C32)CC4=CC=C(C=C4)O)NC(=O)[C@@H](CC5=CC=CC=C5)N)O [CAP-232] + C[C@@H](Oc1cc(-c2cnn(C3CCNCC3)c2)cnc1N)c1c(Cl)ccc(F)c1Cl [Crizotinib] (partner 1 µM)
Method in brief: as §1

CAP-232 + Alpelisib = compound: C[C@H]([C@@H](C(=O)N)NC(=O)[C@@H]1CSSC[C@@H](C(=O)N[C@H](C(=O)N[C@@H](C(=O)N[C@H](C(=O)N1)CCCCN)CC2=CNC3=CC=CC=C32)CC4=CC=C(C=C4)O)NC(=O)[C@@H](CC5=CC=CC=C5)N)O [CAP-232] + Cc1nc(NC(=O)N2CCC[C@H]2C(N)=O)sc1-c1ccnc(C(C)(C)C(F)(F)F)c1 [Alpelisib] (partner 2 µM)
Method in brief: as §1

CAP-232 + Foretinib = compound: C[C@H]([C@@H](C(=O)N)NC(=O)[C@@H]1CSSC[C@@H](C(=O)N[C@H](C(=O)N[C@@H](C(=O)N[C@H](C(=O)N1)CCCCN)CC2=CNC3=CC=CC=C32)CC4=CC=C(C=C4)O)NC(=O)[C@@H](CC5=CC=CC=C5)N)O [CAP-232] + COc1cc2c(Oc3ccc(NC(=O)C4(C(=O)Nc5ccc(F)cc5)CC4)cc3F)ccnc2cc1OCCCN1CCOCC1 [Foretinib] (partner 0.25 µM)
Method in brief: as §1

Cell Line	relative viability (CAP-232 + OSI-027; first compound 0.4 µM)	relative viability (CAP-232 + OSI-027; first compound 1.265 µM)	relative viability (CAP-232 + OSI-027; first compound 4 µM)	relative viability (CAP-232 + OSI-027; first compound 12.65 µM)	relative viability (CAP-232 + Phenformin; first compound 0.4 µM)	relative viability (CAP-232 + Phenformin; first compound 1.265 µM)	relative viability (CAP-232 + Phenformin; first compound 4 µM)	relative viability (CAP-232 + Phenformin; first compound 12.65 µM)	relative viability (CAP-232 + Crizotinib; first compound 0.4 µM)	relative viability (CAP-232 + Crizotinib; first compound 1.265 µM)	relative viability (CAP-232 + Crizotinib; first compound 4 µM)	relative viability (CAP-232 + Crizotinib; first compound 12.65 µM)	relative viability (CAP-232 + Alpelisib; first compound 0.4 µM)	relative viability (CAP-232 + Alpelisib; first compound 1.265 µM)	relative viability (CAP-232 + Alpelisib; first compound 4 µM)	relative viability (CAP-232 + Alpelisib; first compound 12.65 µM)	relative viability (CAP-232 + Foretinib; first compound 0.4 µM)	relative viability (CAP-232 + Foretinib; first compound 1.265 µM)	relative viability (CAP-232 + Foretinib; first compound 4 µM)	relative viability (CAP-232 + Foretinib; first compound 12.65 µM)
HCC-44	0.636	0.507	0.489	0.371	0.392	0.128	0.194	0.171	0.866	0.812	0.863	0.846	0.898	0.768	0.843	0.75	–	–	–	–
HCC-78	0.356	0.364	0.368	0.397	0.859	0.806	0.746	0.54	0.367	0.34	0.251	0.323	0.317	0.371	0.312	0.819	0.564	0.562	0.473	0.568
HCC-366	0.986	0.875	1.22	0.82	0.6	0.588	0.66	0.631	0.486	0.543	0.623	0.448	0.488	0.337	0.521	0.243	0.914	0.948	0.891	0.898
HCC-827	0.896	0.786	0.831	0.637	0.409	0.384	0.387	0.418	0.932	1.02	0.784	0.963	0.913	0.925	0.967	0.919	1.05	1	1.01	1.01
HOP-62	1.03	0.745	0.756	0.781	0.71	0.675	0.72	0.55	1	–	1.05	0.729	0.967	–	1.17	1.29	1.04	1.07	1.01	1.03
IA-LM	–	–	–	–	–	–	–	–	0.852	0.928	0.892	0.242	0.881	0.742	0.629	0.296	1.15	1.14	1.22	0.386
LC-2-ad	0.954	0.852	0.756	0.559	0.707	0.514	0.603	0.257	0.436	0.464	0.451	0.391	0.931	0.823	0.804	0.824	0.875	0.878	0.894	0.524
LCLC-97TM1	0.437	0.523	0.601	0.486	0.462	0.387	0.463	0.422	0.494	0.347	0.28	0.315	0.252	0.228	0.285	0.244	0.879	0.9	1.01	0.925
LCLC-103H	0.481	0.375	0.496	0.464	0.368	0.342	0.315	0.325	1.1	0.984	0.98	1.06	0.948	0.921	0.972	0.898	0.838	0.735	0.802	0.827
NCI-H522	0.72	0.702	0.806	0.696	0.7	0.72	0.592	0.69	–	–	–	–	–	–	–	–	–	–	–	–
NCI-H1395	0.647	0.532	0.67	0.707	0.46	0.4	0.448	0.453	–	–	–	–	0.888	1.08	0.912	0.848	0.971	0.997	0.854	1.11
NCI-H1650	0.637	0.491	0.756	0.215	0.479	0.335	0.424	0.153	0.98	0.963	0.966	0.627	–	–	–	–	1.07	1.11	1.25	0.542
NCI-H1703	–	–	–	–	–	–	–	–	0.788	0.844	0.74	0.695	0.34	0.378	0.344	0.351	0.304	0.364	0.323	0.409
NCI-H1792	0.996	0.76	0.875	0.832	0.129	0.193	0.247	0.188	1.37	1.02	0.834	0.722	0.825	0.823	0.819	0.399	–	–	–	–
NCI-H1793	0.282	0.253	0.196	0.25	0.4	0.367	0.329	0.372	–	–	–	–	0.829	0.669	0.573	0.627	0.678	0.761	0.639	0.725
NCI-H2342	0.565	0.555	0.623	0.568	0.572	0.562	0.629	0.551	–	–	–	–	–	–	–	–	0.944	1.03	0.995	0.995
SW 900	0.66	0.54	0.726	0.449	0.644	0.527	0.722	0.457	–	–	–	–	–	–	–	–	0.819	0.816	0.96	0.858
